Assay results: patent US12533330B2, “(2S)-2-aminopentanethioic s-acid for use as medicament and in therapy of amyotrophic lateral sclerosis” (MASSEY VENTURES LIMITED, priority 2020, dated 2026)

Experiments:
Type in all cases: in vivo
[1] = system: FUS[1-359]-tg mouse line (FUS-tg); assay: Rotarod test in FUS-tg mouse ALS model; details: week 5, via drinking water, one-way ANOVA and Tukey's test
Source text: (§1) A transgenic FUS[1-359]-tg mouse line (FUS-tg) was used to test the efficacy of the substance of formula (I) in the therapy of amyotrophic lateral sclerosis according to the guidelines set for ALS preclinical studies. Ludolph A C et al. Guidelines for preclinical animal research in ALS/MND: A consensus meeting. Amyotroph Lateral Scler. 2010; 11:38-45. Mutations in DNA/RNA-binding factor (fused-in-sarcoma) FUS cause ALS in humans. The FUS-tg mouse model recapitulates core hallmarks of human ALS in the spinal cord, including neuroinflammation and neurodegeneration, ensuing muscle atrophy and paralysis. […] J Biol Chem. 2013; 288:25266-25274. Lutz C. Mouse models of ALS: Past, present and future. […] CNS Neurosci Ther. 2020; 26(5):504-517.
(§2) The substance (I) and the substance (IX) represent (2S)- and (2R)-enantiomers of 2-aminopentanethioic S-acid, respectively. The (2R)-enantiomer (IX) was included to the study to clarify importance of (S)- and (R)-configurations of 2-aminopentanethioic S-acid during the therapy of ALS.

[2] = system: FUS[1-359]-tg mouse line (FUS-tg); assay: Onset of paralysis in FUS-tg mouse ALS model; details: for percentage of FUS-tg mice with signs of paralysis on day 95: FUS-tg male mice, six weeks via drinking water from age nine weeks, (I) and (IX) 50 mg/kg/day, Riluzole 8 mg/kg
Source text: as §1, §2
The onset of paralysis, a core ALS symptom, was recorded for each FUS-tg mouse.

[3] = system: FUS[1-359]-tg mouse line (FUS-tg); assay: Malondialdehyde (MDA) concentration in spinal cord of FUS-tg mice; details: 50 mg/kg/day via drinking water, one-way ANOVA and Tukey's test
Source text: A transgenic FUS[1-359]-tg mouse line (FUS-tg) was used to test the efficacy of the substance of formula (I) in the therapy of amyotrophic lateral sclerosis according to the guidelines set for ALS preclinical studies. Ludolph A C et al. Guidelines for preclinical animal research in ALS/MND: A consensus meeting. Amyotroph Lateral Scler. 2010; 11:38-45. Mutations in DNA/RNA-binding factor (fused-in-sarcoma) FUS cause ALS in humans. The FUS-tg mouse model recapitulates core hallmarks of human ALS in the spinal cord, including neuroinflammation and neurodegeneration, ensuing muscle atrophy and paralysis. Shelkovnikova T A et al. Fused in sarcoma (FUS) protein lacking nuclear localization signal (NLS) and major RNA binding motifs triggers proteinopathy and severe motor phenotype in transgenic mice. J Biol Chem. 2013; 288:25266-25274. Lutz C. Mouse models of ALS: Past, present and future. Brain Res. 2018; 1693:1-10. de Munter J et al. Neuro-Cells therapy improves motor outcomes and suppresses inflammation during experimental syndrome of amyotrophic lateral sclerosis in mice. CNS Neurosci Ther. 2020; 26(5):504-517. […]
The concentration of malondialdehyde (MDA), a marker of oxidative stress, was measured in the spinal cord of FUS-tg mice treated with vehicle or substance of formula (I) in comparison with wild type controls. […]

## CCC[C@@H](N)C(=O)S [substance (IX), (2R)-2-aminopentanethioic S-acid, reference compound]
[1]
  latency to fall in the rotarod test vs. vehicle-treated FUS-tg mice: no significant difference
[2]
  percentage of FUS-tg mice with signs of paralysis on day 95: 43%

## CCC[C@H](N)C(=O)S [substance (I), (2S)-2-aminopentanethioic S-acid]
[3]
  MDA levels in the spinal cord vs. vehicle-treated FUS-tg mice: significant reduction of the MDA levels
[1]
  latency to fall in the rotarod test vs. vehicle-treated FUS-tg mice: significantly longer latency to fall
[2]
  percentage of FUS-tg mice with signs of paralysis on day 95: 16%
[2]; FUS-tg mice, day 95, Fisher test vs. vehicle
  significance of percentage of mice with signs of paralysis on the 95th day vs. vehicle: significantly lower
